From patent US20060148907A1, “Topical antinflammatory preparations of y-terpinene” (priority 2002, published 2006)
Entries after “also recorded” stand apart in the source; their conditions may differ. Where two headings read alike, the source gives them in different places.

Key:
[1] = system: carrageenan induced hind paw edema; settings: cited from earlier work
[2] = system: skin erythemal response induced by solar simulated UV on the dorsal skin of human subjects; assay: Human study: reduction of skin erythemal response induced by solar simulated UV; format: in vivo; settings: for Reduction in Erythema vs Base: 4 mg/sq cm immediately after irradiation and 4-5 hours later, erythema read 16-24 hours later; for statistical difference from the Base and UV alone (MED): p<0.05
[3] = cited from earlier work
[4] = 0.25% in BP 1988 Cetomacrogol Cream
[5] = 0.5% in BP 1988 Cetomacrogol Cream
[6] = 1% (1.0%) in BP 1988 Cetomacrogol Cream

Structure (SMILES)	Reduction in Erythema vs Base [2, 4]	anti-inflammatory effectiveness in words (compared to Indomethacin) ([2]; 0.25% product)	Reduction in Erythema vs Base [2, 5]	Reduction in Erythema vs Base [2, 6]	anti-inflammatory effectiveness in words (compared to Indomethacin) ([2]; 1% (1.0%) product)	other results
CC1=CCC(C(C)C)=CC1 [γ-terpinene]	52%	high effective anti-inflammatory	29%	32%	statistically similar	anti-inflammatory activity ([1]; dose not given): ineffective; also recorded: did not exhibit any significant anti-inflammatory activity; statistical difference from the Base and UV alone (MED) ([2]; 0.25% product): statistically different; more erythema than Indomethacin ([2]; 1.0% product vs 1% Indomethacin): 98%; reducing UV erythema (MED) ([2]; 1.0% product vs UV alone (MED)): 39%; statistical difference from the Base and UV alone (MED) ([2]; 1.0% product): not significantly different from the Base; also recorded: significantly different from the MED
CC1=CC=C(C(C)C)CC1 [α-terpinene]	58%	good performance status				anti-inflammatory activity (inhibition of edema formation) ([1]; highest dose tested, 6 mg/paw): significant anti-inflammatory activity; anti-inflammatory activity (inhibition of edema formation) ([1]; lesser dosages than 6 mg/paw): relatively weak
CC(C)=CCC[C@](C)(O)[C@@H]1CC=C(C)CC1 [(−) alpha-Bisabolol, (−)-alpha-bisabolol, reference compound]	10%		44%			statistical difference from the Base and UV alone (MED) ([2]; 0.50% product): statistically different
CC1=CCC(O)(C(C)C)CC1 (stereo not drawn) [Terpinen-4-ol, terpinen-4-ol, reference compound]	7%		45%		good performance status	anti-inflammatory activity ([1]; dosages from 0.03 mg/paw to 6.0 mg/paw): significant anti-inflammatory activity; acute oral LD50 [3]: 1300 mg/kg
COc1ccc2c(c1)c(CC(=O)O)c(C)n2C(=O)c1ccc(Cl)cc1 [Indomethacin, reference compound]				66%	most effective anti-inflammatory	
